Experiments:
[1] = tested on: ABUTH (Velvetleaf); assay: Postemergence herbicidal evaluation; type: in vivo, Abutilon theophrasti; settings: postemergence
Outline: (§1)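 Seedlings grown about two weeks were sprayed at 40 psi with compound dispersed in 50/50 acetone/water plus 0.5% TWEEN 20, at about 0.0156 to 0.500 kg/ha. Plants were kept in the greenhouse and scored 4–5 weeks later on a 0–9 visual scale against untreated controls.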

[2] = tested on: AMBEL (Ragweed, Common); assay: Postemergence herbicidal evaluation; type: in vivo, Ambrosia artemisifolia; settings: postemergence
Outline: as §1

[3] = tested on: CHEAL (Lambsquarters, Common); assay: Postemergence herbicidal evaluation; type: in vivo, Chenopodium album; settings: postemergence
Outline: as §1

[4] = tested on: GALAP (Galium); assay: Postemergence herbicidal evaluation; type: in vivo, Galium aparine; settings: postemergence
Outline: as §1

[5] = tested on: IPOHE (Morningglory, Ivyleaf); assay: Postemergence herbicidal evaluation; type: in vivo, Ipomoea hederacea; settings: postemergence
Outline: as §1

[6] = tested on: SETVI (Foxtail, Green); assay: Postemergence herbicidal evaluation; type: in vivo, Setaria viridis; settings: postemergence
Outline: as §1

[7] = tested on: GLXMAW (Soybean, Williams); assay: Postemergence herbicidal evaluation; type: in vivo, Glycine max, (L.) Merr. cv Williams; settings: postemergence
Outline: as §1

[8] = tested on: ZEAMX (Corn, Field); assay: Postemergence herbicidal evaluation; type: in vivo, Zea mays; settings: postemergence
Outline: as §1

[9] = tested on: CHEAL (Lambsquarters, Common); assay: Preemergence herbicidal evaluation; type: in vivo, Chenopodium album; settings: rated 4-5 weeks after treatment
Outline: (§2)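 Herbicidal effect scored visually, 0-9, at 4 to 5 weeks against a control; compound applied preemergence by aqueous acetone spray to seeded soil at about 0.0156 to 0.500 kg/ha.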

[10] = tested on: GALAP (Galium); assay: Preemergence herbicidal evaluation; type: in vivo, Galium aparine; settings: rated 4-5 weeks after treatment
Outline: as §2

[11] = tested on: IPOHE (Morningglory, Ivyleaf); assay: Preemergence herbicidal evaluation; type: in vivo, Ipomoea hederacea; settings: rated 4-5 weeks after treatment
Outline: as §2

[12] = tested on: ECHCG (Barnyardgrass); assay: Preemergence herbicidal evaluation; type: in vivo, Echinochloa crus-galli; settings: rated 4-5 weeks after treatment
Outline: as §2

[13] = tested on: SETVI (Foxtail, Green); assay: Preemergence herbicidal evaluation; type: in vivo, Setaria viridis; settings: rated 4-5 weeks after treatment
Outline: as §2

[14] = tested on: GLXMAW (Soybean, Williams); assay: Preemergence herbicidal evaluation; type: in vivo, Glycine max, (L.) Merr. cv Williams; settings: rated 4-5 weeks after treatment
Outline: as §2

[15] = tested on: CYPIR (Rice Flatsedge); assay: Preemergence weed control under flooded paddy conditions; type: in vivo, Cyperus iria; settings: rated 3-4 weeks after treatment
Outline: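 Visual injury scored 0-9 against control three to four weeks post-treatment, greenhouse-grown. Application: acetone/water (50/50) solutions dosed directly into flood water (1.5-3 cm over silt loam, planted top 0.5 cm), roughly 0.0313 to 0.500 kg/ha active ingredient.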

[16] = tested on: CYPSE (Flatsedge); assay: as above; type: in vivo, Cyperus serotinus; settings: rated 3-4 weeks after treatment
Outline: (§3)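 Greenhouse paddy assay. Acetone/water (50/50 v/v) solutions dosed into flood water, equivalent to about 0.0313 to 0.500 kg/ha active ingredient, over seeds planted 0.5 cm deep in silt loam. Score: 0-9 visual, based on stand, vigor, malformation, size and chlorosis, 3 to 4 weeks after treatment.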

[17] = tested on: SAGPY (Arrowhead (Pygmaea)); assay: as above; type: in vivo, Sagittaria pygmaea; settings: rated 3-4 weeks after treatment
Outline: as §3

In the case of C#CCOC(=O)CN1C(=O)CSC1=Nc1cc(-n2c(=O)cc(C(F)(F)F)n(C)c2=O)c(F)cc1Cl [Compound 115, 2-Propynyl 2-{{2-chloro-5-[3,6-dihydro-3-methyl-2,6-dioxo-4-(trifluoromethyl)-1(2H)-pyrimidinyl]-4-fluorophenyl}imino}-4-oxo-3-thiazolidineacetate], the “Herbicidal rating ABUTH” value ([1]; rate 0.0158 kg/ha) was 3.0, the “Herbicidal rating ABUTH” value ([1]; rate 0.0315 kg/ha) was 9.0 and the “Herbicidal rating ABUTH” value ([1]; rate 0.0630 kg/ha) was 9.0. For the same compound, the “Herbicidal rating AMBEL” value ([2]; rate 0.0158 kg/ha) was 1.0, the “Herbicidal rating AMBEL” value ([2]; rate 0.0315 kg/ha) was 6.0 and the “Herbicidal rating AMBEL” value ([2]; rate 0.0630 kg/ha) was 7.0. For the same compound, the “Herbicidal rating CHEAL” value ([3]; rate 0.0158 kg/ha) was 0.0, the “Herbicidal rating CHEAL” value ([3]; rate 0.0315 kg/ha) was 1.0 and the “Herbicidal rating CHEAL” value ([3]; rate 0.0630 kg/ha) was 4.0. For the same compound, the “Herbicidal rating GALAP” value ([4]; rate 0.0158 kg/ha) was 0.0, the “Herbicidal rating GALAP” value ([4]; rate 0.0315 kg/ha) was 0.0 and the “Herbicidal rating GALAP” value ([4]; rate 0.0630 kg/ha) was 2.0. For the same compound, the “Herbicidal rating IPOHE” value ([5]; rate 0.0158 kg/ha) was 9.0, the “Herbicidal rating IPOHE” value ([5]; rate 0.0315 kg/ha) was 9.0 and the “Herbicidal rating IPOHE” value ([5]; rate 0.0630 kg/ha) was 9.0. For the same compound, the “Herbicidal rating SETVI” value ([6]; rate 0.0158 kg/ha) was 0.0, the “Herbicidal rating SETVI” value ([6]; rate 0.0315 kg/ha) was 4.0 and the “Herbicidal rating SETVI” value ([6]; rate 0.0630 kg/ha) was 9.0. The “Herbicidal rating GLXMAW” value ([7]; rate 0.0158 kg/ha) was 5.0, the “Herbicidal rating GLXMAW” value ([7]; rate 0.0315 kg/ha) was 5.0 and the “Herbicidal rating GLXMAW” value ([7]; rate 0.0630 kg/ha) was 5.0. The “Herbicidal rating ZEAMX” value ([8]; rate 0.0158 kg/ha) was 5.0, the “Herbicidal rating ZEAMX” value ([8]; rate 0.0315 kg/ha) was 6.5 and the “Herbicidal rating ZEAMX” value ([8]; rate 0.0630 kg/ha) was 7.0. For the same compound, the “Preemergence herbicidal rating CHEAL” value ([9]; rate 0.0313 kg/ha) was 5.0, the “Preemergence herbicidal rating CHEAL” value ([9]; rate 0.0625 kg/ha) was 7.0 and the “Preemergence herbicidal rating CHEAL” value ([9]; rate 0.1250 kg/ha) was 9.0. The “Preemergence herbicidal rating CHEAL” value ([9]; rate 0.2500 kg/ha) was 9.0, the “Preemergence herbicidal rating GALAP” value ([10]; rate 0.0156 kg/ha) was 1.0 and the “Preemergence herbicidal rating GALAP” value ([10]; rate 0.0313 kg/ha) was 3.0. For the same compound, the “Preemergence herbicidal rating GALAP” value ([10]; rate 0.0625 kg/ha) was 3.0, the “Preemergence herbicidal rating GALAP” value ([10]; rate 0.1250 kg/ha) was 7.0 and the “Preemergence herbicidal rating GALAP” value ([10]; rate 0.2500 kg/ha) was 9.0. The “Preemergence herbicidal rating IPOHE” value ([11]; rate 0.0156 kg/ha) was 0.0, the “Preemergence herbicidal rating IPOHE” value ([11]; rate 0.0313 kg/ha) was 0.0 and the “Preemergence herbicidal rating IPOHE” value ([11]; rate 0.0625 kg/ha) was 0.0. The “Preemergence herbicidal rating IPOHE” value ([11]; rate 0.1250 kg/ha) was 2.0, the “Preemergence herbicidal rating IPOHE” value ([11]; rate 0.2500 kg/ha) was 7.0 and the “Preemergence herbicidal rating ECHCG” value ([12]; rate 0.0156 kg/ha) was 0.0. For the same compound, the “Preemergence herbicidal rating ECHCG” value ([12]; rate 0.0313 kg/ha) was 0.0, the “Preemergence herbicidal rating ECHCG” value ([12]; rate 0.0625 kg/ha) was 0.0 and the “Preemergence herbicidal rating ECHCG” value ([12]; rate 0.1250 kg/ha) was 0.0. For the same compound, the “Preemergence herbicidal rating ECHCG” value ([12]; rate 0.2500 kg/ha) was 0.0, the “Preemergence herbicidal rating SETVI” value ([13]; rate 0.0156 kg/ha) was 1.0 and the “Preemergence herbicidal rating SETVI” value ([13]; rate 0.0313 kg/ha) was 0.0. The “Preemergence herbicidal rating SETVI” value ([13]; rate 0.0625 kg/ha) was 0.0, the “Preemergence herbicidal rating SETVI” value ([13]; rate 0.1250 kg/ha) was 0.0 and the “Preemergence herbicidal rating SETVI” value ([13]; rate 0.2500 kg/ha) was 4.0. For the same compound, the “Preemergence herbicidal rating GLXMAW” value ([14]; rate 0.0156 kg/ha) was 0.0, the “Preemergence herbicidal rating GLXMAW” value ([14]; rate 0.0313 kg/ha) was 0.0 and the “Preemergence herbicidal rating GLXMAW” value ([14]; rate 0.0625 kg/ha) was 1.0. For the same compound, the “Preemergence herbicidal rating GLXMAW” value ([14]; rate 0.1250 kg/ha) was 3.0, the “Preemergence herbicidal rating GLXMAW” value ([14]; rate 0.2500 kg/ha) was 4.0 and the “CYPIR herbicidal effect rating” value ([15]; 0.0313 kg/ha) was 5.0. The “CYPIR herbicidal effect rating” value ([15]; 0.0625 kg/ha) was 6.0, the “CYPIR herbicidal effect rating” value ([15]; 0.1250 kg/ha) was 9.0 and the “CYPIR herbicidal effect rating” value ([15]; 0.2500 kg/ha) was 9.0. The “CYPSE herbicidal effect rating” value ([16]; 0.0313 kg/ha) was 0.0, the “CYPSE herbicidal effect rating” value ([16]; 0.0625 kg/ha) was 0.0 and the “CYPSE herbicidal effect rating” value ([16]; 0.2500 kg/ha) was 6.0. The “SAGPY herbicidal effect rating” value ([17]; 0.0313 kg/ha) was 2.0, the “SAGPY herbicidal effect rating” value ([17]; 0.0625 kg/ha) was 3.0 and the “SAGPY herbicidal effect rating” value ([17]; 0.1250 kg/ha) was 5.0. For the same compound, the “SAGPY herbicidal effect rating” value ([17]; 0.2500 kg/ha) was 6.0.

— US20020137929A1, “1 - (3-heterocyclylphenyl) isothiourea, -isourea, -guanidine and -amidine herbicidal agents” (Intellectual Property Department, BASF Aktiengesellschaft, priority 1998, published 2002)
